Laboratory results taken from patent US20250101041A1, “POSITIVE ALLOSTERIC MODULATORS OF THE MUSCARINIC ACETYLCHOLINE RECEPTOR M4” (Vanderbilt University, priority 2022, published 2025).

Target: T1, human mAChR M4 (Homo sapiens, UniProt P08173)
T1 construct: expressed in transfected cells; host or cells: CHO-K1 (American Type Culture Collection), stably expressing hM4 and Gqi5
T1 sequence (P08173 1-479): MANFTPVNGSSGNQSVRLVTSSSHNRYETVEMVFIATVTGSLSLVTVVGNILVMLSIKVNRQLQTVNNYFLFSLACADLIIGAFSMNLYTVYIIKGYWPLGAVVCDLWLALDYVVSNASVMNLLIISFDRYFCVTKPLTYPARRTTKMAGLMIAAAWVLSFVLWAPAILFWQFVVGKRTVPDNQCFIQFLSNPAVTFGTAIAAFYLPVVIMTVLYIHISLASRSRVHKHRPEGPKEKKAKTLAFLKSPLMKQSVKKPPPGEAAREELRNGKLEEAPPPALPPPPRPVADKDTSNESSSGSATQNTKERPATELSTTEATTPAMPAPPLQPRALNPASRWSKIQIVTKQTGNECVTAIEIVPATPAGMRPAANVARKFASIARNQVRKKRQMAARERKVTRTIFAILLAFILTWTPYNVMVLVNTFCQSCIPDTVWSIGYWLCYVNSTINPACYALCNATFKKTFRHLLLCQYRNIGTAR
Assay: mAChR M4 cell-based functional assay: calcium mobilization (Fluo-4, FDSS), potentiation of EC20 acetylcholine response in hM4-Gqi5 CHO-K1 cells
Conditions: human M4; for Emax at 30 µM: CHO-K1, % ACh maximum at 30 μM; for EC50: potentiation of EC20 acetylcholine response, calcium mobilization
Outline: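 CHO-K1 cells stably co-expressing human M4 and chimeric Gqi5, loaded with Fluo-4 AM (50 min, 37 °C). Compounds in 11-point 1:3 series added first; EC20 acetylcholine added at 144 s and again at 230 s. Calcium read on FDSS at 1 Hz; EC50 and Emax from four-parameter logistic fit of potentiated EC20 response.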

Row | Emax at 30 µM | EC50 | Compound
1 | 100% | 21 nM | COc1cc(Nc2cnc3c(c2)CN(c2nn4c(=O)ccnc4cc2C)CC3)ccn1 [Compound 2-141, 7-(3-((2-methoxypyridin-4-yl)amino)-7,8-dihydro-1,6-naphthyridin-6(5H)-yl)-8-methyl-4H-pyrimido[1,2-b]pyridazin-4-one]
2 | 75% | 699 nM | Cc1cc2nccc(=O)n2nc1N1CCc2ncc(-c3ccc4nccn4c3)cc2C1 [Compound 1-53, 7-(3-(imidazo[1,2-a]pyridin-6-yl)-7,8-dihydro-1,6-naphthyridin-6(5H)-yl)-8-methyl-4H-pyrimido[1,2-b]pyridazin-4-one]
3 | 100% | 1240 nM | Cc1c(N2CCc3ncc(N=S4(=O)CCCC4)cc3C2)nn2c(=O)ccnc2c1C [Compound 2-147, 8,9-dimethyl-7-(3-((1-oxidotetrahydro-126-thiophen-1-ylidene)amino)-7,8-dihydro-1,6-naphthyridin-6(5H)-yl)-4H-pyrimido[1,2-b]pyridazin-4-one]
4 | 56% |  | Cc1cc2nccc(=O)n2nc1N1CCc2ncc(N3CC4(COC4)C3)cc2C1 [Compound 2-151, 7-(3-(2-oxa-6-azaspiro[3.3]heptan-6-yl)-7,8-dihydro-1,6-naphthyridin-6(5H)-yl)-8-methyl-4H-pyrimido[1,2-b]pyridazin-4-one]
5 | 86% | 1030 nM | Cc1c(N2CCc3ncc(N4CCC(C)(C)C4=O)cc3C2)nn2c(=O)ccnc2c1C [Compound 2-148, 7-(3-(3,3-dimethyl-2-oxopyrrolidin-1-yl)-7,8-dihydro-1,6-naphthyridin-6(5H)-yl)-8,9-dimethyl-4H-pyrimido[1,2-b]pyridazin-4-one]
6 | 79% | 437 nM | Cc1cc2nccc(=O)n2nc1N1CCc2ncc(Nc3cccc(F)n3)cc2C1 [Compound 2-107, 7-(3-((6-fluoropyridin-2-yl)amino)-7,8-dihydro-1,6-naphthyridin-6(5H)-yl)-8-methyl-4H-pyrimido[1,2-b]pyridazin-4-one]
7 | 30% |  | Cc1cc2nccc(=O)n2nc1N1CCc2ncc(NC(=O)C3COC3)cc2C1 [Compound 2-109, N-(6-(8-methyl-4-oxo-4H-pyrimido[1,2-b]pyridazin-7-yl)-5,6,7,8-tetrahydro-1,6-naphthyridin-3-yl)oxetane-3-carboxamide]
8 | 90% | 481 nM | COc1cnccc1-c1cnc2c(c1)CN(c1nn3c(=O)cc(C)nc3c(C)c1C)CC2 [Compound 1-282, 7-(3-(3-methoxypyridin-4-yl)-7,8-dihydro-1,6-naphthyridin-6(5H)-yl)-2,8,9-trimethyl-4H-pyrimido[1,2-b]pyridazin-4-one]
9 | 58% | 170 nM | Cc1cc(=O)n2nc(N3CCc4ncc(-c5ccc(N(C)C)nc5)cc4C3)c(C)cc2n1 [Compound 1-221, 7-(3-(6-(dimethylamino)pyridin-3-yl)-7,8-dihydro-1,6-naphthyridin-6(5H)-yl)-2,8-dimethyl-4H-pyrimido[1,2-b]pyridazin-4-one]
10 | 85% | 188 nM | Cc1cc(=O)n2nc(N3CCc4ncc(-c5ccc(C)o5)cc4C3)c(C)cc2n1 [Compound 1-302, 2,8-dimethyl-7-(3-(5-methylfuran-2-yl)-7,8-dihydro-1,6-naphthyridin-6(5H)-yl)-4H-pyrimido[1,2-b] pyridazin-4-one]
11 | 66% |  | Cc1cc2nccc(=O)n2nc1N1CCc2ncc(NC(=O)C3(C)CCC3)cc2C1 [Compound 2-121, 1-methyl-N-(6-(8-methyl-4-oxo-4H-pyrimido[1,2-b]pyridazin-7-yl)-5,6,7,8-tetrahydro-1,6-naphthyridin-3-yl)cyclobutane-1-carboxamide]
12 | 66% | 182 nM | Cc1cc2nccc(=O)n2nc1N1CCc2ncc(Nc3cncc(Cl)c3)cc2C1 [Compound 2-142, 7-(3-((5-chloropyridin-3-yl)amino)-7,8-dihydro-1,6-naphthyridin-6(5H)-yl)-8-methyl-4H-pyrimido[1,2-b]pyridazin-4-one]
13 | 70% | 231 nM | Cc1c(N2CCc3ncc(-c4ccc(N(C)C)nc4)cc3C2)nn2c(=O)ccnc2c1C [Compound 1-89, 7-(3-(6-(dimethylamino)pyridin-3-yl)-7,8-dihydro-1,6-naphthyridin-6(5H)-yl)-8,9-dimethyl-4H-pyrimido[1,2-b]pyridazin-4-one]
14 | 75% | 1090 nM | Cc1cc(=O)n2nc(N3CCc4ncc(-c5cc(F)cc(F)c5F)cc4C3)c(C)c(C)c2n1 [Compound 1-273, 2,8,9-trimethyl-7-(3-(2,3,5-trifluorophenyl)-7,8-dihydro-1,6-naphthyridin-6(5H)-yl)-4H-pyrimido[1,2-b]pyridazin-4-one]
15 | 96% | 503 nM | COCc1cc(=O)n2nc(N3CCc4ncc(C(F)(F)F)cc4C3)c(C)cc2n1 [Compound 1-313, 2-(methoxymethyl)-8-methyl-7-(3-(trifluoromethyl)-7,8-dihydro-1,6-naphthyridin-6(5H)-yl)-4H-pyrimido[1,2-b]pyridazin-4-one]
16 | 60% | 651 nM | Cc1c(N2CCc3ncc(-c4cnc5ccccc5c4)cc3C2)nn2c(=O)ccnc2c1C [Compound 1-224, 8,9-dimethyl-7-(3-(quinolin-3-yl)-7,8-dihydro-1,6-naphthyridin-6(5H)-yl)-4H-pyrimido[1,2-b]pyridazin-4-one]
17 | 93% | 20 nM | Cc1cc2nccc(=O)n2nc1N1CCc2ncc(N3CC(C)Oc4ccccc43)cc2C1 (stereo not shown) [Compound 2-57, 8-methyl-7-(3-(2-methyl-2,3-dihydro-4H-benzo[b][1,4]oxazin-4-yl)-7,8-dihydro-1,6-naphthyridin-6(5H)-yl)-4H-pyrimido[1,2-b]pyridazin-4-one]
18 | 89% | 15 nM | Cc1c(N2CCc3ncc(N4CCOc5ncccc54)cc3C2)nn2c(=O)ccnc2c1C [Compound 2-33, 7-(3-(2,3-dihydro-1H-pyrido[2,3-b][1,4]oxazin-1-yl)-7,8-dihydro-1,6-naphthyridin-6(5H)-yl)-8,9-dimethyl-4H-pyrimido[1,2-b]pyridazin-4-one]
19 | 53% | 837 nM | Cc1cc(=O)n2nc(N3CCc4ncc(NCc5csc(C)n5)cc4C3)c(C)c(C)c2n1 [Compound 2-50, 2,8,9-trimethyl-7-(3-(((2-methylthiazol-4-yl)methyl)amino)-7,8-dihydro-1,6-naphthyridin-6(5H)-yl)-4H-pyrimido[1,2-b]pyridazin-4-one]
20 | 87% | 363 nM | Cc1cc2nccc(=O)n2nc1N1CCc2ncc(N3CCO[C@H](C)C3)cc2C1 [Compound 2-2, (R)-8-methyl-7-(3-(2-methylmorpholino)-7,8-dihydro-1,6-naphthyridin-6(5H)-yl)-4H-pyrimido[1,2-b]pyridazin-4-one]
21 | 61% | 2180 nM | Cc1cc2nccc(=O)n2nc1N1CCc2ncc(-c3cn(C)nn3)cc2C1 [Compound 1-321, 8-methyl-7-(3-(1-methyl-1H-1,2,3-triazol-4-yl)-7,8-dihydro-1,6-naphthyridin-6(5H)-yl)-4H-pyrimido[1,2-b]pyridazin-4-one]
22 | 86% | 283 nM | CCn1cc(-c2cnc3c(c2)CN(c2nn4c(=O)cc(C(F)F)nc4c(C)c2C)CC3)cn1 [Compound 1-166, 2-(difluoromethyl)-7-(3-(1-ethyl-1H-pyrazol-4-yl)-7,8-dihydro-1,6-naphthyridin-6(5H)-yl)-8,9-dimethyl-4H-pyrimido[1,2-b]pyridazin-4-one]
23 | 67% | 483 nM | Cc1c(N2CCc3ncc(-c4cc(F)cc(F)c4F)cc3C2)nn2c(=O)ccnc2c1C [Compound 1-346, 8,9-dimethyl-7-(3-(2,3,5-trifluorophenyl)-7,8-dihydro-1,6-naphthyridin-6(5H)-yl)-4H-pyrimido[1,2-b]pyridazin-4-one]
24 | 80% | 305 nM | Cc1cncc(-c2cnc3c(c2)CN(c2nn4c(=O)ccnc4c(C)c2C)CC3)c1 [Compound 1-147, 8,9-dimethyl-7-(3-(5-methylpyridin-3-yl)-7,8-dihydro-1,6-naphthyridin-6(5H)-yl)-4H-pyrimido[1,2-b]pyridazin-4-one]
25 | 90% | 13 nM | Cc1cc2nc(C(F)F)cc(=O)n2nc1N1CCc2ncc(N3CCOc4ncccc43)cc2C1 [Compound 2-29, 2-(difluoromethyl)-7-(3-(2,3-dihydro-1H-pyrido[2,3-b][1,4]oxazin-1-yl)-7,8-dihydro-1,6-naphthyridin-6(5H)-yl)-8-methyl-4H-pyrimido[1,2-b]pyridazin-4-one]
26 | 96% | 46 nM | Cc1cc2n(n1)CCCN2c1cnc2c(c1)CN(c1nn3c(=O)ccnc3c(C)c1C)CC2 [Compound 2-35, 8,9-dimethyl-7-(3-(2-methyl-6,7-dihydropyrazolo[1,5-a]pyrimidin-4(5H)-yl)-7,8-dihydro-1,6-naphthyridin-6(5H)-yl)-4H-pyrimido[1,2-b]pyridazin-4-one]
